Assay results taken from patent US20150344404A1, “PDK4 INHIBITOR AND USE THEREOF” (THE KITASATO INSTITUE, priority 2012, published 2015).

Test system: PDK isozymes 1, 2 and 3
Experiment: not given
Conditions: background art; cited from earlier work
For `CN(C)C(=O)c1ccc(S(=O)(=O)c2ccc(NC(=O)[C@@](C)(O)C(F)(F)F)c(Cl)c2)cc1` [AZD7545], the “IC50 against PDK isozymes 1, 2 and 3” value is given as “sub μM order”.

Target: recombinant human PDK4 (Homo sapiens, UniProt Q16654)
Sequence (Q16654 whole entry): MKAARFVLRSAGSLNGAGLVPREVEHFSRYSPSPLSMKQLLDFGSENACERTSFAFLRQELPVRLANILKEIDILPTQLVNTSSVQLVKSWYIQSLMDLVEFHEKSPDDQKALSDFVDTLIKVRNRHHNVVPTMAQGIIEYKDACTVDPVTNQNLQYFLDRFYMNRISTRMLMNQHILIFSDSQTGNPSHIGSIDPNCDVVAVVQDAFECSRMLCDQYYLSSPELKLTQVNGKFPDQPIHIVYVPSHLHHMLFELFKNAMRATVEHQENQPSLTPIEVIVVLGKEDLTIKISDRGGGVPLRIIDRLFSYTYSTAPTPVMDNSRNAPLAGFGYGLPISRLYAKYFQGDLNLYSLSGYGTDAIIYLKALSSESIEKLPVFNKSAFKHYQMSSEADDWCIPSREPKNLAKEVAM
Experiment: PDK4 enzyme inhibitory activity by off-chip mobility shift assay
Type: biochemical
Conditions: Table 34; recombinant human PDK4, room temperature, 5 hours; read-out: IC50, PDK inhibitory activity of representative compounds
Protocol: Measurement of PDK4/PDK2 inhibitory activity by off-chip mobility shift assay: The compound solution (5 μL), 4×substrate/ATP/metal mixture (5 μL) and 2×recombinant human PDK4 (5 μL) were added to 384 well micro plate. After reacting at room temperature for 5 hours, the reaction stop solution (60 μL) was added to above solution. The substrate peptide (S) and phosphorylated peptide (P) was quantified using LabChip3000, then the inhibitory activity was calculated from the ratio (P/P+S).
Work on `CC1=CC(=O)c2cc(C=O)ccc2C1=O` [KIS97, 6-formyl-2-methyl-1,4-naphthoquinone] yielded an IC50 of 18 µM.
`CC1=CC(=O)c2cc(C(=O)NCC(=O)O)ccc2C1=O` [KIS99, N-[(1,4-dihydro-1,4-dioxo-2-methyl-6-naphthylenyl)carbonyl]glycine] showed an IC50 of 21 µM.
Compound `CC1=CC(=O)c2c(O)cc(C(=O)O)cc2C1=O` [KIS90, 7-carboxy-5-hydroxy-2-methyl-1,4-naphthoquinone] has an IC50 of 20 µM.
For `CC1=CC(=O)c2cc(CO)ccc2C1=O` [KIS96, 6-hydroxymethyl-2-methyl-1,4-naphthoquinone], the IC50 was 30 µM.
`COC(=O)c1ccc2c(c1)C(=O)C=C(C)C2=O` [KIS95, 6-carbomethoxy-2-methyl-1,4-naphthoquinone] gave an IC50 of 26 µM.
Work on `COC(=O)c1cc(O)c2c(c1)C(=O)C(C)=CC2=O` [KIS79, 7-carbomethoxy-5-hydroxy-2-methyl-1,4-naphthoquinone] yielded an IC50 of 9 µM.
`CC1=CC(=O)c2cc(C(C)O)ccc2C1=O` (racemic) [KIS92, (±)-2-methyl-6-(1-hydroxyethyl)-1,4-naphthoquinone] gave an IC50 of 46 µM.
With `COC1=CC(=O)c2ccccc2C1=O` [KIS69] the IC50 was 26 µM.
For `CC1=CC(=O)c2ccccc2C1=O` [KIS12], the IC50 was 38 µM.
In the case of `CC1=CC(=O)c2cc(C(=O)NCC(=O)OC(C)(C)C)ccc2C1=O` [KIS98, Glycine, N-[(1,4-dihydro-1,4-dioxo-2-methyl-6-naphthylenyl)carbonyl], tert-butyl ester], the IC50 is reported as 23 µM.
Work on `CC1=CC(=O)c2cc(C(=O)O)ccc2C1=O` [KIS93, 6-carboxyl-2-methyl-1,4-naphthoquinone] yielded an IC50 of 36 µM.
With `CC1=CC(=O)c2ccc(C(=O)O)cc2C1=O` [KIS78, 7-carboxyl-2-methyl-1,4-naphthoquinone] the IC50 was 46 µM.
`Cc1cc(N)c2ccccc2c1O` [KIS61] gave an IC50 of 27 µM.
For `O=C1CCC(=O)c2c(O)ccc(O)c21` [KIS58], the IC50 was 12 µM.
For `O=C(O)c1ccc2c(c1)C(=O)C=CC2=O` [KIS19], the IC50 was 19 µM.

Same assay, conditions: Table 35; recombinant human PDK4, room temperature, 5 hours; read-out: IC50
Work on `CC1=C(Br)C(=O)c2ccccc2C1=O` [KIS147] yielded an IC50 of 26 µM.
`C#CCNC(=O)c1ccc2c(c1)C(=O)C=C(C)C2=O` [KIS153] showed an IC50 of 36 µM.
In the case of `CC1=CC(=O)c2ccc(C=O)cc2C1=O` [KIS126], the IC50 is reported as 22 µM.
With `CC1=CC(=O)c2cc(C=CC(=O)NCC(=O)O)ccc2C1=O` [KIS151] the IC50 was 17 µM.
Work on `CC1=CC(=O)c2ccc(CO)cc2C1=O` [KIS128] yielded an IC50 of 27 µM.
`CC1=CC(=O)c2cc(C(=O)N[C@@H](CO)C(=O)O)ccc2C1=O` [KIS131, N-[(1,4-dihydro-1,4-dioxo-2-methyl-6-naphthylenyl)carbonyl]serine] showed an IC50 of 20 µM.
Compound `CC(=O)OCc1ccc2c(c1)C(=O)C=C(C)C2=O` [KIS148] has an IC50 of 19 µM.
Compound `CCOC(=O)c1ccc2c(c1)C(=O)C=C(C)C2=O` [KIS127] has an IC50 of 26 µM.
`CC1=CC(=O)c2ccncc2C1=O` [KIS118] gave an IC50 of 16 µM.

Test system: not given
Experiment: not given
Conditions: background art; cited from earlier work
For `O=C(O)C(Cl)Cl` [Dichloro acetic acid], the side effect is given as “neurotoxicity”.
